Test results reported in ChEMBL document CHEMBL5385865, “Discovery and optimization of 2-(trifluoromethyl)benzimidazole derivatives as novel ferroptosis inducers in vitro and in vivo” (Eur J Med Chem, 2023).
The source made the active and inactive calls. No cut-off for these calls is given here.

What was measured:
[1] = biological target: T1, Phospholipid hydroperoxide glutathione peroxidase GPX4 (Homo sapiens) (UniProt P36969); assay: Inhibition of GPX4 in human HT-1080 cells at 5 uM incubated for 2 hrs; assay type: cell-based
T1 sequence (whole entry): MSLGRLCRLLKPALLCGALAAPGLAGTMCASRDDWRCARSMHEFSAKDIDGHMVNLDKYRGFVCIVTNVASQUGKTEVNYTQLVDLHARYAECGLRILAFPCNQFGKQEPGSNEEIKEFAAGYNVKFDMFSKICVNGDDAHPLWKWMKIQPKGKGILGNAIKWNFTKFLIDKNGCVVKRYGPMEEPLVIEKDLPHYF

HT-1080 [2] = assay: Lethality in human HT-1080 cells assessed as inhibition of cell viability incubated for 24 hrs by MTT assay; assay type: functional, cell-based; conditions: HT-1080, 24 h
HT-1080 [3] = assay: Lethality in human HT-1080 cells assessed as cell survival at 10 uM incubated for 24 hrs by MTT assay relative to control; assay type: functional; conditions: read-out: Activity
[4] = Metabolic stability in human liver microsomes assessed as intrinsic clearance measured per mg protein at 1 uM in presence of NADPH by LC-MS analysis; assay type: ADME, Microsome; conditions: read-out: CLH
[5] = Metabolic stability in human liver microsomes assessed as half life at 1 uM in presence of NADPH by LC-MS analysis; assay type: ADME, Microsome
[6] = Metabolic stability in […] rat microsomes assessed as half life at 1 uM in presence of NADPH by LC-MS analysis; assay type: ADME, Liver, Microsome
[7] = Metabolic stability in rat liver microsomes assessed as intrinsic clearance measured per mg protein at 1 uM in presence of NADPH by LC-MS analysis; assay type: ADME, Microsome; conditions: read-out: CLH
[8] = biological target: T2, Cystine/glutamate transporter (Homo sapiens) (UniProt Q9UPY5); assay: Inhibition of Xc- in human HT-1080 cells assessed as decrease in glutamate release at 5 uM incubated for 3 hrs by Amplex red assay; assay type: cell-based
T2 sequence (whole entry): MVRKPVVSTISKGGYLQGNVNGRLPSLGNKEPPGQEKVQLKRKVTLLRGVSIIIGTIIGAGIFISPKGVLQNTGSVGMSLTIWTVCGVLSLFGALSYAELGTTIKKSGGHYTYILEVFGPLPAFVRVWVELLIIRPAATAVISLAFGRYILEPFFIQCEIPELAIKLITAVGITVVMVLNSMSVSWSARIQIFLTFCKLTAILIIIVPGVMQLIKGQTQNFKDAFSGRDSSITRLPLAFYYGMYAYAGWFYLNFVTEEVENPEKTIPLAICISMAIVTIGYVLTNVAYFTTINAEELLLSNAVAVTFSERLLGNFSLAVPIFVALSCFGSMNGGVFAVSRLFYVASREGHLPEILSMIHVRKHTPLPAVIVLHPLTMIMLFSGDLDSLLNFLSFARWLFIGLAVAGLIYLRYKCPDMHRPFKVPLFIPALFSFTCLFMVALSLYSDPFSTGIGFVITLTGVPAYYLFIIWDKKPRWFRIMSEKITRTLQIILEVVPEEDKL

| Structure (SMILES) | IC50 (HT-1080 [2]) | viability at 10 µM (HT-1080 [3]) | also measured |
| --- | --- | --- | --- |
| COC(=O)c1ccc([C@H]2c3[nH]c4ccccc4c3C[C@H](C(=O)OC)N2C(=O)CCl)cc1 | – | – | inhibition [1]: Active |
| CN(C)C(=O)c1ccc(N2CCC(Cn3c(C(F)(F)F)nc4ccccc43)CC2)cc1F | 2.11 µM | – | – |
| CN(C)C(=O)c1ccc(N2CCC(Cn3c(C(F)(F)F)nc4ccccc43)CC2)cc1 | 3.06 µM | – | – |
| CN(C)C(=O)c1ccc(N2CCC(Cn3cnc4ccccc43)CC2)cc1Cl | – | < 50% | – |
| O=S(=O)(c1ccc(N2CCC(Cn3c(C(F)(F)F)nc4ccccc43)CC2)cc1)N1CCOCC1 | 1.89 µM | – | microsomal CLint at 1 µM [4]: 118 µL/min/mg; half-life at 1 µM [5]: 11.7 min; half-life at 1 µM [6]: 7.4 min; microsomal CLint at 1 µM [7]: 187 µL/min/mg |
| CN1C(=O)c2ccc(N3CCC(Cn4c(C(F)(F)F)nc5ccccc54)CC3)cc2C1=O | – | < 50% | – |
| O=C(c1ccc(N2CCC(Cn3c(C(F)(F)F)nc4ccccc43)CC2)cc1)N1CCCC1 | 1.49 µM | – | microsomal CLint at 1 µM [4]: 105 µL/min/mg; half-life at 1 µM [5]: 13.2 min; half-life at 1 µM [6]: 8.6 min; microsomal CLint at 1 µM [7]: 164 µL/min/mg |
| CCOc1ccccc1-n1c(C(C)N2CCN(C(=O)COc3ccc(Cl)cc3)CC2)nc2ccccc2c1=O (stereo not given) [ERASTIN] | 1.52 µM | – | microsomal CLint at 1 µM [4]: 349 µL/min/mg; half-life at 1 µM [5]: 4 min; half-life at 1 µM [6]: 3.5 min; microsomal CLint at 1 µM [7]: 400 µL/min/mg; inhibition [8]: Active |
| FC(F)(F)c1nc2ccccc2n1CC1CCN(c2ccc(N3CCOCC3)c(Cl)c2)CC1 | – | < 50% | – |
| CC(=O)Nc1ccc(N2CCC(Cn3c(C(F)(F)F)nc4ccccc43)CC2)cc1Cl | – | < 50% | – |
| CN(C)C(=O)c1ccc(N2CCC(Cn3cnc4c(C(F)(F)F)cccc43)CC2)cc1Cl | – | < 50% | – |
| CCN(CC)C(=O)c1ccc(N2CCC(Cn3c(C(F)(F)F)nc4ccccc43)CC2)cn1 | 3.46 µM | – | – |
| CN(C)C(=O)c1ccc(N2CCC(Cn3ccc4ccccc43)CC2)cc1Cl | – | < 50% | – |
| CC(C)c1ccc(N2CCC(Cn3c(C(F)(F)F)nc4ccccc43)CC2)cc1 | – | < 50% | – |
| CN(C)c1ccc(C(=O)N2CCC(Cn3c(C(F)(F)F)nc4ccccc43)CC2)cc1 | 8.17 µM | – | – |
| FC(F)(F)c1ccc(N2CCC(Cn3c(C(F)(F)F)nc4ccccc43)CC2)cc1Cl | – | < 50% | – |

| Structure (SMILES) | IC50 (HT-1080 [2]) | viability at 10 µM (HT-1080 [3]) | also measured |
| --- | --- | --- | --- |
| CN(C)C(=O)c1cccc(N2CCC(Cn3c(C(F)(F)F)nc4ccccc43)CC2)c1 | – | < 50% | – |
| COc1ccc(N2CCC(Cn3c(C(F)(F)F)nc4ccccc43)CC2)cc1Cl | – | < 50% | – |
| CC(C)Oc1ccc(N2CCC(Cn3c(C(F)(F)F)nc4ccccc43)CC2)cc1Cl | – | < 50% | – |
| CCOc1cccc(-c2nc3ccccc3n2CC2CCN(c3ccc(S(=O)(=O)N(C)C)cc3)CC2)c1 | – | < 50% | – |
| COC(=O)c1ccc(N2CCC(Cn3c(C(F)(F)F)nc4ccccc43)CC2)cc1S(C)(=O)=O | 6.64 µM | – | – |
| COC(=O)c1ccc(N2CCC(Cn3c(C(F)(F)F)nc4ccccc43)CC2)cc1Cl | – | < 50% | – |
| CS(=O)(=O)c1cc(N2CCC(Cn3c(C(F)(F)F)nc4ccccc43)CC2)ccc1CO | 7.47 µM | – | – |
| CN(C)S(=O)(=O)c1ccc(N2CCC(Cn3c(-c4ccccc4)nc4ccccc43)CC2)cc1 | – | < 50% | – |
| CCOc1ccccc1Cc1nc2ccccc2n1CC1CCN(c2ccc(S(=O)(=O)N(C)C)cc2)CC1 | – | < 50% | – |
| CC(C)(C)c1ccc(N2CCC(Cn3c(C(F)(F)F)nc4ccccc43)CC2)cc1 | – | < 50% | – |
| CN(C)c1ccc(CC(=O)N2CCC(Cn3c(C(F)(F)F)nc4ccccc43)CC2)cc1 | 3.48 µM | – | – |
| CCOc1ccccc1-c1nc2ccccc2n1CC1CCN(c2ccc(S(=O)(=O)N(C)C)cc2)CC1 | – | < 50% | – |
| CN(C)C(=O)c1ccc(N2CCC(Cn3c(C(F)(F)F)nc4ccccc43)CC2)cc1Cl | 2.53 µM | – | – |
| FC(F)(F)c1nc2ccccc2n1CC1CCN(c2ccc(C3CCCCC3)cc2)CC1 | – | < 50% | – |
| O=C(COc1ccc(Cl)cc1)N1CCC(Cn2c(C(F)(F)F)nc3ccccc32)CC1 | 3.16 µM | – | – |
| CCN(CC)C(=O)c1ccc(N2CCC(Cn3c(C(F)(F)F)nc4ccccc43)CC2)cc1 | 2.21 µM | – | – |
